# US9708334B2, “Substituted 2,4,5,6-tetrahydropyrrolo[3,4-c]pyrazole and 4,5,6,7-tetrahydro-2H-pyrazolo[4,3-c]pyridine compounds as GlyT1 inhibitors” (DART NEUROSCIENCE (CAYMAN) LTD., priority 2014, dated 2017)
# Target: T1, GlyT1 (Homo sapiens, UniProt P48067)
# T1 construct: expressed in transfected cells
# T1 sequence (P48067 1-706): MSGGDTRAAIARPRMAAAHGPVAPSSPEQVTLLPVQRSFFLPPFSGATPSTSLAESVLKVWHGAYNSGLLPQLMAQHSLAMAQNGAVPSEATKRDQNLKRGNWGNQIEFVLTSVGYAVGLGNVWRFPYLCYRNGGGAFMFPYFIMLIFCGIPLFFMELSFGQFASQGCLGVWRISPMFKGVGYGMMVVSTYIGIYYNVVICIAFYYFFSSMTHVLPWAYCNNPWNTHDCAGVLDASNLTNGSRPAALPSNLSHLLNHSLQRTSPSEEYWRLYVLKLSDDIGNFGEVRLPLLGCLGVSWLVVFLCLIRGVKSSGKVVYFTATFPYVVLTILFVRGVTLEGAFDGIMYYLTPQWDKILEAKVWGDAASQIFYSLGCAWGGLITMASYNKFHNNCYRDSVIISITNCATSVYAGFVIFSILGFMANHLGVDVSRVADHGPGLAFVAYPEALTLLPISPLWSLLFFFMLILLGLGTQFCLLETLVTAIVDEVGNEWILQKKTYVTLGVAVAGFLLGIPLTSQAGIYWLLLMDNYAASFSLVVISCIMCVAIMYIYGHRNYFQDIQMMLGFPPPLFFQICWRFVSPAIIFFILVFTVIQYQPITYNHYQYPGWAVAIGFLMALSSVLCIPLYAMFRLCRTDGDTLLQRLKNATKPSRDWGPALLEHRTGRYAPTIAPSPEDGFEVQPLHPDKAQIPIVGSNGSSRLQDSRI
# Assay: Glycine Transporter 1 (GlyT1) uptake assay, scintillation proximity assay of [14C]-glycine uptake
# Assay type: cell-based
# Settings: SPA, four parameter logistic fit, read-out: GlyT1 (pIC50) (converted)
# Procedure, shortened: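 [14C]-glycine uptake read by scintillation proximity on a plate counter. IC50 from four-parameter logistic fit of dose-response data.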
row,SMILES,IC50 [µM]
1,"CCS(=O)(=O)c1ccc(O[C@@H](C)C(F)(F)F)c(C(=O)N2Cc3cn(C4CCCC4)nc3C2)c1 [Example 417, 2-Cyclopentyl-5-[5-(ethanesulfonyl)-2-{[(2S)-1 1 1-trifluoropropan-2-yl]oxy}benzoyl]-2H 4H 5H 6H-pyrrolo[3,4-c]pyrazole]",< 0.1
2,"CC[C@H](C)Cn1cc2c(n1)CN(C(=O)c1cc(C#N)ccc1O[C@@H](C)C(F)(F)F)C2 [Example 418, 3-{2-[(2S)-2-Methylbutyl]-2H 4H 5H 6H-pyrrolo[3,4-c]pyrazole-5-carbonyl}-4-{[(2S)-1 1 1-trifluoropropan-2-yl]oxy}benzonitrile]",0.1 to 1
3,"C[C@H](Oc1ccc(C#N)cc1C(=O)N1Cc2cn(CC3CCOC3)nc2C1)C(F)(F)F (stereo partly drawn) [Example 419, 3-[2-(Oxolan-3-ylmethyl)-2H 4H 5H 6H-pyrrolo[3,4-c]pyrazole-5-carbonyl]-4-{[(2S)-1 1 1-trifluoropropan-2-yl]oxy}benzonitrile]",0.1 to 1
4,"CC(C)Oc1ccc(C#N)cc1C(=O)N1Cc2cn(CC3CCOC3)nc2C1 (stereo not shown) [Example 420, 3-[2-(Oxolan-3-ylmethyl)-2H 4H 5H 6H-pyrrolo[3,4-c]pyrazole-5-carbonyl]-4-(propan-2-yloxy)benzonitrile]",0.1 to 1
5,"C[C@H](Oc1ccc(C#N)cc1C(=O)N1Cc2cnn(-c3ccnnc3)c2C1)C(F)(F)F [Example 421, 3-[1-(Pyridazin-4-yl)-1H 4H 5H 6H-pyrrolo[3,4-c]pyrazole-5-carbonyl]-4-{[(2S)-1 1 1-trifluoropropan-2-yl]oxy}benzonitrile]",0.1 to 1
6,"CC(C)Oc1ccc(C#N)cc1C(=O)N1Cc2cn(-c3ccnnc3)nc2C1 [Example 422, 4-(Propan-2-yloxy)-3-[2-(pyridazin-4-yl)-2H 4H 5H 6H-pyrrolo[3,4-c]pyrazole-5-carbonyl]benzonitrile]",0.1 to 1
7,"C[C@H](Oc1ccc(C#N)cc1C(=O)N1Cc2cn(-c3ccnnc3)nc2C1)C(F)(F)F [Example 423, 3-[2-(Pyridazin-4-yl)-2H 4H 5H 6H-pyrrolo[3,4-c]pyrazole-5-carbonyl]-4-{[(2S)-1 1 1-trifluoropropan-2-yl]oxy}benzonitrile]",< 0.1
8,"CC(C)Oc1ccc(C#N)cc1C(=O)N1Cc2cn(-c3ccn4ccnc4c3)nc2C1 [Example 424, 3-(2-{Imidazo[1 2-a]pyridin-7-yl}-2H 4H 5H 6H-pyrrolo[3,4-c]pyrazole-5-carbonyl)-4-(propan-2-yloxy)benzonitrile]",1 to 10
9,"C[C@H](Oc1ccc(C#N)cc1C(=O)N1Cc2cn(-c3ccn4ccnc4c3)nc2C1)C(F)(F)F [Example 425, 3-(2-{Imidazo[1 2-a]pyridin-7-yl}-2H 4H 5H 6H-pyrrolo[3,4-c]pyrazole-5-carbonyl)-4-{[(2S)-1 1 1-trifluoropropan-2-yl]oxy}benzonitrile]",0.1 to 1
10,"CS(=O)(=O)c1ccc(-c2cccc(F)c2)c(C(=O)N2Cc3cn(CC4CCC4)nc3C2)c1 [Example 426, 2-(Cyclobutylmethyl)-5-[2-(3-fluorophenyl)-5-methanesulfonylbenzoyl]-2H 4H 5H 6H-pyrrolo[3,4-c]pyrazole]",< 0.1
11,"CC(C)Cn1cc2c(n1)CN(C(=O)c1cc(S(C)(=O)=O)ccc1-c1cccc(F)c1)C2 [Example 427, 5-[2-(3-Fluorophenyl)-5-methanesulfonylbenzoyl]-2-(2-methylpropyl)-2H 4H 5H 6H-pyrrolo[3,4-c]pyrazole]",< 0.1
12,"CCS(=O)(=O)c1ccc(N2CCC(F)(F)CC2)c(C(=O)N2Cc3cn(CC4CCC4)nc3C2)c1 [Example 428, 1-{2-[2-(Cyclobutylmethyl)-2H 4H 5H 6H-pyrrolo[3,4-c]pyrazole-5-carbonyl]-4-(ethanesulfonyl)phenyl}-4 4-difluoropiperidine]",< 0.1
13,"CS(=O)(=O)c1ccc(N2CCC(F)(F)CC2)c(C(=O)N2Cc3cn(C4CCCC4)nc3C2)c1 [Example 430, 1-(2-{2-Cyclopentyl-2H 4H 5H 6H-pyrrolo[3,4-c]pyrazole-5-carbonyl}-4-methanesulfonylphenyl)-4 4-difluoropiperidine]",< 0.1
14,"CS(=O)(=O)c1ccc(N2CCC(F)(F)CC2)c(C(=O)N2Cc3cn(CC4CCC4)nc3C2)c1 [Example 431, 1-{2-[2-(Cyclobutylmethyl)-2H 4H 5H 6H-pyrrolo[3,4-c]pyrazole-5-carbonyl]-4-methanesulfonylphenyl}-4 4-difluoropiperidine]",< 0.1
15,"CC(C)Cn1cc2c(n1)CN(C(=O)c1cc(S(C)(=O)=O)ccc1N1CCC(F)(F)CC1)C2 [Example 432, 4 4-Difluoro-1-{4-methanesulfonyl-2-[2-(2-methylpropyl)-2H 4H 5H 6H-pyrrolo[3,4-c]pyrazole-5-carbonyl]phenyl}piperidine]",< 0.1
16,"CC(C)n1cc2c(n1)CN(C(=O)c1cc(S(C)(=O)=O)ccc1N1CCC(F)(F)CC1)C2 [Example 433, 4 4-Difluoro-1-{4-methanesulfonyl-2-[2-(propan-2-yl)-2H 4H 5H 6H-pyrrolo[3,4-c]pyrazole-5-carbonyl]phenyl}piperidine]",0.1 to 1
17,"CC(C)(F)Cn1cc2c(n1)CN(C(=O)c1cc(S(C)(=O)=O)ccc1-c1cccc(F)c1)C2 [Example 434, 2-(2-Fluoro-2-methylpropyl)-5-[2-(3-fluorophenyl)-5-methanesulfonylbenzoyl]-2H 4H 5H 6H-pyrrolo[3,4-c]pyrazole]",0.1 to 1
18,"CC1(COc2ccc(S(C)(=O)=O)cc2C(=O)N2Cc3cn(-c4ccccc4)nc3C2)COC1 [Example 435, 5-{5-Methanesulfonyl-2-[(3-methyloxetan-3-yl)methoxy]benzoyl}-2-phenyl-2H 4H 5H 6H-pyrrolo[3,4-c]pyrazole]",< 0.1
19,"CC1(COc2ccc(S(C)(=O)=O)cc2C(=O)N2Cc3cn(-c4ccccc4F)nc3C2)COC1 [Example 436, 2-(2-Fluorophenyl)-5-{5-methanesulfonyl-2-[(3-methyloxetan-3-yl)methoxy]benzoyl}-2H 4H 5H 6H-pyrrolo[3,4-c]pyrazole]",0.1 to 1
20,"Cc1cccc(-n2cc3c(n2)CN(C(=O)c2cc(S(C)(=O)=O)ccc2OCC2(C)COC2)C3)c1 [Example 437, 5-{5-Methanesulfonyl-2-[(3-methyloxetan-3-yl)methoxy]benzoyl}-2-(3-methylphenyl)-2H 4H 5H 6H-pyrrolo[3,4-c]pyrazole]",< 0.1
21,"CC1(COc2ccc(S(C)(=O)=O)cc2C(=O)N2Cc3cn(-c4cccc(C(F)(F)F)c4F)nc3C2)COC1 [Example 438, 2-[2-Fluoro-3-(trifluoromethyl)phenyl]-5-{5-methanesulfonyl-2-[(3-methyloxetan-3-yl)methoxy]benzoyl}-2H 4H 5H 6H-pyrrolo[3,4-c]pyrazole]",0.1 to 1
22,"CC1(COc2ccc(S(C)(=O)=O)cc2C(=O)N2Cc3cn(-c4cc(Cl)ccc4F)nc3C2)COC1 [Example 439, 2-(5-Chloro-2-fluorophenyl)-5-{5-methanesulfonyl-2-[(3-methyloxetan-3-yl)methoxy]benzoyl}-2H 4H 5H 6H-pyrrolo[3,4-c]pyrazole]",0.1 to 1
23,"CC1(COc2ccc(S(C)(=O)=O)cc2C(=O)N2Cc3cn(-c4ccc(F)cc4)nc3C2)COC1 [Example 440, 2-(4-Fluorophenyl)-5-{5-methanesulfonyl-2-[(3-methyloxetan-3-yl)methoxy]benzoyl}-2H 4H 5H 6H-pyrrolo[3,4-c]pyrazole]",< 0.1
24,"Cc1cccc(-n2cc3c(n2)CN(C(=O)c2cc(S(C)(=O)=O)ccc2OCC2(C)COC2)C3)c1F [Example 441, 2-(2-Fluoro-3-methylphenyl)-5-{5-methanesulfonyl-2-[(3-methyloxetan-3-yl)methoxy]benzoyl}-2H 4H 5H 6H-pyrrolo[3,4-c]pyrazole]",0.1 to 1
25,"Cc1ccc(F)c(-n2cc3c(n2)CN(C(=O)c2cc(S(C)(=O)=O)ccc2OCC2(C)COC2)C3)c1 [Example 442, 2-(2-Fluoro-5-methylphenyl)-5-{5-methanesulfonyl-2-[(3-methyloxetan-3-yl)methoxy]benzoyl}-2H 4H 5H 6H-pyrrolo[3,4-c]pyrazole]",0.1 to 1
26,"C[C@H](Oc1ccc(C#N)cc1C(=O)N1Cc2cn(-c3ccncc3)nc2C1)C(F)(F)F [Example 443, 3-[2-(Pyridin-4-yl)-2H 4H 5H 6H-pyrrolo[3,4-c]pyrazole-5-carbonyl]-4-{[(2S)-1 1 1-trifluoropropan-2-yl]oxy}benzonitrile]",< 0.1
27,"CC(C)Oc1ccc(C#N)cc1C(=O)N1Cc2cnn(CC(F)(F)F)c2C1 [Example 444, 4-(Propan-2-yloxy)-3-[1-(2 2 2-trifluoroethyl)-1H 4H 5H 6H-pyrrolo[3,4-c]pyrazole-5-carbonyl]benzonitrile]",0.1 to 1
28,"CS(=O)(=O)c1ccc(-c2cccc(F)c2)c(C(=O)N2Cc3cnn(CC(F)(F)F)c3C2)c1 [Example 445, 5-[2-(3-Fluorophenyl)-5-methanesulfonylbenzoyl]-1-(2 2 2-trifluoroethyl)-1H 4H 5H 6H-pyrrolo[3,4-c]pyrazole]",0.1 to 1
